The results in this text go back to US5462948A, “Treatment of addiction to drugs and substances of abuse” (H. Lundbeck A/S, priority 1991, dated 1995).

Series [1] in a line: Catalepsy test in rats (s.c., vertical wire mesh). The following applies: rat, maximum catalepsy within the first 6 hours. The method, then: Test compound is given s.c. in different doses. The rat (170-240 g) is placed on a vertical wire mesh (mesh diameter 12 mm). The rat is considered cataleptic if it remains immobile for more than 15 sec. The maximum number of rats showing catalepsy within the first 6 hours is recorded for each dose group. The results are recorded in fractions and an ED50 value is calculated by means of log-probit analysis. The results are shown in Table 1 (cf. Our Internat. Patent Application Publ. No. WO 92/00070).

Series [2] is described as follows: Inhibition of nicotine withdrawal symptoms in mice (black/white test box). The following applies: 0.1 mg/kg i.p.; FIG. 2. The format is in vivo, mice (male BKW). As to the method:
(§1) The tests are tests for the effect of a substance on the abstinence symptoms induced by withdrawal of a drug of a substance of abuse in mice measured as the effect on some specific behavioral changes following to withdrawal of the drug or substance of abuse.
(§2) The test was conducted using an open-top experimental box (45*27*27 cm) two fifths of which was partitioned from the rest, painted black and illuminated with a dim red light (1×60 W, zero Lux). The remainder of the box was painted white and brightly illuminated (60 W, 400 Lux) with a white light source. The light sources were located 17 cm above the box and the base of the box was lined into 9 cm squares. Access between the two compartments was by means of a 7.5×7.5 cm opening located in floor level at the centre of the partition.
(§3) The mice were male BKW mice having weight of 25-30 g, housed in groups of 10 and given free acces to drink and food and kept on a dark/light cycle of 12 hours.
The test was carried out by taking the mice to a dimly illuminated room and then after 1 hour adaption to the new environment placing them in the centre of the white section of the test box. Behavioural changes were assed via remote video recording. The following behavioural changes were measured:
a) The time spent in the white and black section;
b) the number of explorative rearings in both the white and black section; […]

Series [3] can be described thus: Inhibition of diazepam withdrawal symptoms in mice (black/white test box). The following applies: 0.1 mg/kg i.p.; FIG. 1. The format is in vivo, mice (male BKW). As to the method:
as §1, §2, §3
Diazepam (10 mg/kg) was given i.p. twice a day for 7 days and then withdrawn. […]
The test was carried out by taking the mice to a dimly illuminated room and then after 1 hour adaption to the new environment placing them in the centre of the white section of the test box. […] The following behavioural changes were measured: […]

Consider `O=C1NCCN1CCN1CC=C(c2cn(-c3ccc(F)cc3)c3ccc(C(F)(F)F)cc23)CC1` [Comp. A, 1-(4-Fluorophenyl)-3-[1-[2-(2-imidazolidinon-1-yl)ethyl]-1,2,3,6-tetrahydropyridin-4-yl]-5-trifluoromethyl-1H-indole, reference compound], for which the “Cataleptic activity ED50 (s.c.)” value in series [1] is 0.49 µmol/kg. Same read-out and setting: the result for `O=C1NCCN1CCN1CC=C(c2cn(-c3ccc(F)cc3)c3ccc(Cl)cc23)CC1` [Comp. B, 5-Chloro-1-(4-fluorophenyl)-3-[1-[2-(2-imidazolidinon-1-yl)ethyl]-1,2,3,6-tetrahydro-4-pyridyl]-1H-indole, reference compound] reads 2.2 µmol/kg. `CN1CCN(CCN2CCC(c3cn(-c4ccc(F)cc4)c4ccc(Cl)cc34)CC2)C1=O` [Comp. No 3, 5-chloro-1-(4-fluorophenyl)-3-[1-[2-(3-methyl-2-imidazolidinon-1-yl)ethyl]-4-piperidyl]-1H-indole]: in series [1], the “Cataleptic activity ED50 (s.c.)” value worked out at 31 µmol/kg. Consider `O=C1CCCN1CCN1CCC(c2cn(-c3ccc(F)cc3)c3ccc(Cl)cc23)CC1` [Comp. No 4, 5-chloro-1-(4-fluorophenyl)-3-[1-[2-(2-pyrrolidinon-1-yl)ethyl]-4-piperidyl]-1H-indole], for which the “Cataleptic activity ED50 (s.c.)” value in series [1] amounted to 23 µmol/kg. As for `O=C1NCCN1CCN1CCC(c2cn(-c3ccc(F)cc3)c3ccc(Cl)cc23)CC1` [Sertindole, 5-chloro-1-(4-fluorophenyl)-3-[1-[2-(2-imidazolidinon-1-yl)ethyl]-4-piperidyl]-1H-indole], in series [2], the “Inhibiting effect on the withdrawal behavioural changes, nicotine” value is recorded as “statistically significant inhibiting effect” and the “Relieving effect on the symptoms following withdrawal of nicotine” value is reported as “marked relieving effect”. In addition, in series [3], the “Inhibiting effect on the withdrawal behavioural changes, diazepam” value is on record as “statistically significant inhibiting effect” and the “Relieving effect on the symptoms following withdrawal of diazepam” value is “marked relieving effect”.
